Measured values: patent publication US20170340658A1, “COMBINED USE OF A CHEMOTHERAPEUTIC AGENT AND A CYCLIC DINUCLEOTIDE FOR CANCER TREATMENT” (INVIVOGEN, priority 2014, published 2017)

Columns and labels:
Panc02 pancreatic tumors = assay: Orthotopic Panc02 pancreatic tumors in mice, intercalated combinations (Example 8); assay type: in vivo, mouse; settings: for mean tumor volume: Day 30, CDN 5 mg/kg i.t. Day 9, i.v. Days 16, 23, gemcitabine 100 mg/kg i.p. Days 12, 19, 26; for # Mice with metastases / Average # metastases per mouse: Day 30 post-implantation, CDN 5 mg/kg, gemcitabine 100 mg/kg i.p.
Protocol: • Species evaluated: mouse • Tumor model: Panc02 • Treatment tested: intercalated combinations of a CDN (either CL592, CL614 or CL656) and gemcitabine • Reference compounds: gemcitabine, CL592, CL614 and CL656 • Parameters evaluated: tumor growth, and incidence of metastases
On Day 1, 55 mice (C57/BL6; male; 10 weeks old; 23 g to 25 g) each received an intrapancreatic injection of Panc02 cells (1×10^6 cells in 50 μL serum-free medium).
Day 9: Groups 3 to 8 each received an intratumoral injection of the appropriate CDN (CL592, CL614 or CL656, respectively; 50 μL; 5 mg/kg in 0.9% saline)
Day 12: Group 2 and Groups 6 to 8 each received an intraperitoneal injection of gemcitabine (200 μL; 100 mg/kg in 0.9% saline)
Day 16: Groups 3 to 8 each received an intravenous injection of the appropriate CDN (CL592, CL614 or CL656, respectively; 50 μL; 5 mg/kg in 0.9% saline)
Day 19: Group 2 and Groups 6 to 8 were treated as on Day 12.
Day 23: Groups 3 to 8 were treated as on Day 16.
Day 26: Group 2 and Groups 6 to 8 were treated as on Days 12 and 19.
Day 30: Each mouse was checked for tumor presence and metastases.

Panc02 tumors = assay: Murine model of orthotopic Panc02 pancreatic tumors (Example 4); assay type: in vivo, mouse; settings: for INCIDENCE OF METASTASIS / PRE-SACRIFICE MORTALITY: Day 34
From the text: • Species evaluated: mouse • Tumor model: Panc02 (murine pancreatic tumor cell line) • Treatments tested: gemcitabine monotherapy, c-AIMP monotherapy, and gemcitabine combined with c-AIMP • Clinical parameters evaluated: tumor volume, incidence of metastasis and mortality • Administration routes evaluated: intravenous (i.v.) or intratumoral (i.t.) injection (depending on experiment) • On Day 1, 30 mice (C57BL/6; male) received an orthotopic injection of Panc02 tumor cells (1×10^6) in their pancreas. The mice were then divided into six groups of five animals. Each group received a different treatment, as outlined below: • Group 1: saline (by i.v. injection) on Days 7, 10, 14, 17, 21 and 24; • Group 2: gemcitabine monotherapy (100 mg/kg; i.p.); on Days 7, 10, 14, 17, 21 and 24; • Group 3: c-AIMP monotherapy (25 mg/kg; i.t.) on Days 7 and 21; • Group 4: c-AIMP monotherapy (25 mg/kg; i.v.) on Days 7, 14 and 21; • Group 5: c-AIMP (25 mg/kg; i.t.) followed (5 h later) by gemcitabine (100 mg/kg; i.p.) on Day 7; and gemcitabine (100 mg/kg; i.p.) on Days 10, 14, 17, 21 and 24; • Group 6: c-AIMP (25 mg/kg; i.v.) followed (5 h later) by gemcitabine (100 mg/kg; i.p.) on Day 7; and gemcitabine (100 mg/kg; i.p.) on Days 10, 14, 17, 21 and 24;
At days 7, 21/24, 28 and 34, the mice were assessed for tumor volume, incidence of metastasis and mortality.

Type I interferons = assay: Type I interferon induction in sera of CDN-treated mice (Example 3); assay type: in vivo, mouse; settings: 10 mg/kg i.v., 4 h post-treatment, FIG. 5
From the text: (§1) • Species evaluated: mouse • Cyclic dinucleotides tested: CL604, CL606, CL609, CL611 and CL614 • Reference compound: c-AIMP and saline • Cytokines evaluated: IFN-α/β (using RAW ISG54 reporter cells) and IL-6 (by ELISA)
(§2) Twenty-one mice (Swiss; female; mean age: 8 weeks) were divided into seven groups of three: one group served as control (saline) and the other six groups were each treated with a cyclic dinucleotide (either c-AIMP, CL604, CL606, CL609, CL611 or CL614). On Day −7, blood samples for basal cytokine levels were collected from all mice and stored at −20° C. until analysis. On Day 1, the mice were treated with either 200 μL of physiologic serum (containing 0.9% NaCl) or 200 μL of a solution of a cyclic dinucleotide (dose: 10 mg/kg) in physiologic serum (containing 0.9% NaCl), by intravenous (i.v.) injection. Blood samples were collected from the mice at 4 h post-injection, and then stored at −20° C. until analysis. Cytokine induction was measured in the sera from the blood samples.

IL-6 = IL-6 induction in sera of CDN-treated mice, ELISA (Example 3); assay type: in vivo, mouse; settings: 10 mg/kg i.v., 4 h post-treatment, FIG. 6
From the text: Interleukin-6 was quantified using an enzyme-linked immunoassay (ELISA) according to the manufacturer's instructions (R&D Systems).
as §1, §2

PC-1.0 tumors = assay: Hamster model of orthotopic PC-1.0 pancreatic tumors (Example 5); assay type: in vivo; settings: gemcitabine monotherapy 50 mg/Kg i.p.
From the text: • Species evaluated: hamster • Tumor model: PC-1.0 (hamster pancreatic tumor cell line (Egami, Tomioka, Tempero, Kay, & Pour, 1991)) • Treatments tested: gemcitabine monotherapy, and gemcitabine combined with c-AIMP • Clinical parameters evaluated: tumor volume, incidence of metastasis and mortality • Administration routes evaluated: intravenous (i.v.) vs. intratumoral (i.t.) injection (depending on experiment) for CL592 • On Day 1, 22 hamsters (Golden Syrian) received an orthotopic injection of PC-1.0 tumor cells (1×10^6) in the tail of their pancreas. The hamsters were then divided into four groups of five or six animals. Each group received a different treatment, as outlined below: • Group 1 (n=5) received saline (by i.v. injection) on Days 8, 15 and 22; • Group 2 (n=6): c-AIMP (25 mg/Kg; i.v.) followed by gemcitabine (50 mg/Kg; i.p.) on Day 8; and gemcitabine (50 mg/Kg; i.p.) on Days 15 and 22; • Group 3 (n=6): c-AIMP (25 mg/Kg; i.t.) followed by gemcitabine (50 mg/Kg; i.p.) on Day 8; and gemcitabine (50 mg/Kg; i.p.) on Days 15 and 22; • Group 4 (n=5): gemcitabine monotherapy (50 mg/Kg; i.p.) at Days 8, 15 and 22.
At days 8, 21/24, 28 and 34, the mice were assessed for tumor volume, incidence of metastasis and mortality.

DT6606 pancreatic tumors = settings: Day 36 vs pre-treatment tumor volume; CL592 i.t. Day 13, 5 mg/kg i.v. Days 20, 27; gemcitabine 100 mg/kg i.p. Days 16, 23, 30
Protocol: • Tumor line evaluated: DT6606 (Partecke, 2011) • Treatment tested: intercalated combination of CL592 and gemcitabine • Reference compound: gemcitabine • Parameter evaluated: tumor growth
On Day 1, 20 mice (C57/BL6; female; 10 weeks old; 18 g to 22 g) received an intrapancreatic injection of DT6606 cells (5×10^5 cells in 30 μL serum-free medium). One mouse was sacrificed before treatment due to a renal deformation.
The groups were then treated according to the treatment regimen below.
Day 13: Groups 1 and 2 received an intratumoral injection of saline solution (50 μL), and Groups 3 and 4, an intratumoral injection of CL592 (50 μL; 2.5 mg/mL in saline buffer;).
Day 16: Groups 2 and 4 received an intraperitoneal tail injection of gemcitabine (100 μL solution/100 g body mass; 10 mg/mL in saline buffer; dose: 100 mg/kg).
Day 20: Groups 3 and 4 received an intravenous tail injection of CL592 (200 μL; 0.5 mg/mL in saline buffer; dose: 5 mg/kg).
Day 23: Groups 2 and 4 were treated as on Day 16.
Day 27: Groups 3 and 4 were treated as on Day 20.
Day 30: Groups 2 and 4 were treated as on Days 16 and 23.
Day 36: Each mouse was checked for tumor presence. The volume of each observed tumor was measured and the mice were then sacrificed.
Tumor growth (expressed as a percentage) was calculated as follows:
(([tumor volume at day 36]−[pre-treatment tumor volume])/[pre-treatment tumor volume])×100%

[1] = c-AIMP 25 mg/kg i.t., alone or with gemcitabine 100 mg/kg i.p.
[2] = c-AIMP 25 mg/kg i.v., alone or with gemcitabine 100 mg/kg i.p.
[3] = gemcitabine monotherapy 100 mg/kg i.p.

SMILES: Nc1ncnc2c1ncn2C1OC2COP(=O)(S)O[C@@H]3C(COP(=O)(S)O[C@H]2[C@H]1F)OC(n1cnc2c(=O)[nH]cnc21)[C@@H]3F (mixture of isomers) [CL656, c-[2′FdAMP(S)-2′FdIMP(S)]]
- mean tumor volume (Panc02 pancreatic tumors): 340.2 mm^3
- # Mice with metastases (Panc02 pancreatic tumors): 40% (2/5)
- Average # metastases per mouse (Panc02 pancreatic tumors): 3

SMILES: Nc1ncnc2c1ncn2[C@@H]1O[C@@H]2COP(=O)(O)O[C@H]3[C@@H](O)[C@H](n4cnc5c(=O)[nH]cnc54)O[C@@H]3COP(=O)(O)O[C@H]2[C@H]1O [CL592, c-AIMP]
- mean tumor volume (Panc02 pancreatic tumors): 231.0 mm^3
- # Mice with metastases (Panc02 pancreatic tumors): 20% (1/5)
- Average # metastases per mouse (Panc02 pancreatic tumors): 2
- INCIDENCE OF METASTASIS (Panc02 tumors; [1]): 0%
- PRE-SACRIFICE MORTALITY (Panc02 tumors; [1]): 0%
- INCIDENCE OF METASTASIS (Panc02 tumors; [2]): 0%
- PRE-SACRIFICE MORTALITY (Panc02 tumors; [2]): 0%
- reducing tumor growth (Panc02 tumors; FIG. 7, c-AIMP 25 mg/kg i.v. or i.t., comparison among all treatments): most effective ones at reducing tumor growth

SMILES: Nc1ncnc2c1ncn2C1OC2COP(=O)(O)O[C@H]3C(n4cnc5c(=O)[nH]cnc54)OC(COP(=O)(O)O[C@@H]1[C@@H]2O)[C@H]3O (stereo partly drawn) [CL611, (2′,2′)c-AIMP]
- induction of Type I interferons in sera (Type I interferons): all of the tested cyclic dinucleotides except CL611 strongly induced Type I interferons
- induction of IL-6 in sera (IL-6): all of the cyclic dinucleotides except CL611 induced IL-6

SMILES: Nc1ncnc2c1ncn2C1OC2COP(=O)(O)O[C@@H]3C(COP(=O)(O)O[C@H]2[C@H]1F)OC(n1cnc2c(=O)[nH]cnc21)[C@@H]3F (stereo partly drawn) [CL614, c-(2′FdAMP-2′FdIMP)]
- mean tumor volume (Panc02 pancreatic tumors): 318.6 mm^3
- # Mice with metastases (Panc02 pancreatic tumors): 40% (2/5)
- Average # metastases per mouse (Panc02 pancreatic tumors): 5

SMILES: Nc1ccn([C@@H]2O[C@H](CO)[C@@H](O)C2(F)F)c(=O)n1 [gemcitabine, Gemcitabine]
- mean tumor volume (Panc02 pancreatic tumors): 380.7 mm^3
- # Mice with metastases (Panc02 pancreatic tumors): 88% (7/8)
- Average # metastases per mouse (Panc02 pancreatic tumors): 13
- INCIDENCE OF METASTASES (PC-1.0 tumors): 100%
- NUMBER OF METASTASES PER HAMSTER, Hamster 1 (PC-1.0 tumors): 13
- NUMBER OF METASTASES PER HAMSTER, Hamster 2 (PC-1.0 tumors): 15
- NUMBER OF METASTASES PER HAMSTER, Hamster 3 (PC-1.0 tumors): 3
- NUMBER OF METASTASES PER HAMSTER, Hamster 4 (PC-1.0 tumors): 10
- NUMBER OF METASTASES PER HAMSTER, Hamster 5 (PC-1.0 tumors): 5
- INCIDENCE OF METASTASES (PC-1.0 tumors; listed as GemC): 100%
- mean tumor growth (DT6606 pancreatic tumors): 22%
- INCIDENCE OF METASTASIS (Panc02 tumors; [3]): 50%
- PRE-SACRIFICE MORTALITY (Panc02 tumors; [3]): 20%
- PRE-SACRIFICE MORTALITY (Panc02 tumors; gemcitabine monotherapy 100 mg/kg i.p., listed as GemC): 20%
